# Laboratory results as given in US20120184035A1, “Methods and Compositions For Reprogramming Cells” (priority 2011, published 2012).
# Entries after “also recorded” stand apart in the source; their conditions may differ.
# Test system: 293T cells
# Assay: RT-PCR of muscle specific gene expression in permeabilized 293T cells incubated with cell extracts, with or without transcription modifying agents or conditioned media
# Assay type: cell-based, human
# Source text: A hallmark of a particular cell type is its gene expression profile. Reverse-Transcription of the expressed RNA in a cell, combined with Polymerase Chain Reaction aided amplification of the signal (RT-PCR), was used to detect the expression levels of these genes and provide a method to detect cell reprogramming. This example illustrates RT-PCR assays for detection of muscle specific genes in C2C12 cells (FIG. 5). Total RNA prepared from C2C12 cells at different stages of differentiation (t=0, t=3, t=6) or from 293T cells or HeLa cells were used in an RT-PCR reaction with primers specific to the muscle specific genes, MyoD or Myogenin. […] RT-PCR conditions for the detection of late muscle specific genes Troponin T and Myosin Heavy Chain, and for the hES cell marker Oct-4, were also established. Due to its relatively high sensitivity, gene expression analysis using RT-PCR was used to detect expression of marker genes in permeablized and potentially reprogrammed recipient cells.
# Cell extracts were introduced into a recipient cell by reversible permeabilization of recipient cells using the pore-forming, calcium sensitive bacterial toxin Streptolysin O (SLO) and exposure of these cells to reprogramming cell extracts. Limited and transient exposure of cells to low doses of SLO in the absence of calcium ions allows the formation of membrane pores large enough to allow the passive diffusion of proteins up to the size of 100 kilodaltons, but not large enough for organelles. Subsequently, reversal of this membrane permeabilization by adding calcium ions allows the membrane to repair itself and the resealed cells are viable and can proliferate. During the permeabilization process, the recipient cell was incubated with whole cell extracts or nuclear or cytoplasmic extracts of a desired cell type (“donor cell”), and (in some experiments) in the presence of permeabilization/reprogramming promoting agents such as an energy generating system and cytoskeletal disruptors. The whole cell extract is believed to provide regulatory factors that are taken up by the permeabilizing recipient cell. The plasma membrane was then resealed, the cells were allowed to recover and cultured further, in conditions conducive to desired reprogramming. […] The resultant changes in gene expression profiles may arise over time, and may be further promoted by subsequent rounds of treatment with donor cell extract.
# Cells were treated with reprogramming extracts (or control 293T “self” extracts) as above.
# We next turned to testing the effects of these treatments on reprogramming potential by evaluating reprogramming of 293T or primary NHDF-N cells incubated with cell extracts from the C2C12 muscle differentiating system by gene expression analysis (RT-PCR). In the case of examining the effects of transcription modifying agents, several variations of treatment plans were envisioned. The agents can be applied before or after permeabilizing the cells (or both) and for different durations of time, as long as the cells survive the treatment. Plausibly, different treatment designs could potentially lead to different effects.
# [1] = agents applied after priming/permeabilization of C2C12 extract exposed 293T cells, 5-aza 10 uM, SB 10 mM, TSA 10 nM
# [2] = agents for 48 hours before permeabilization, 293T self extract
SMILES,"MyoD expression in cells primed with control self extract (agent applied post priming, 293T self extract)",level of MyoD RNA detection [1],MyoD expression in cells incubated with control self extract [2],"level of MyoD RNA detection (agents for 48 hours before permeabilization, C2C12 extract incubated 293T cells, relative to C2C12 extract alone)","Troponin T transcript at later timepoints (later timepoints, modifier treated and C2C12 extract incubated 293T cells)","level of MyoD RNA detection (agents applied after priming/permeabilization of C2C12 extract exposed 293T cells, 5-aza 10 uM, SB 10 mM, TSA 10 nM, listed as SB)","level of MyoD RNA detection (agents for 48 hours before permeabilization, C2C12 extract incubated 293T cells, relative to C2C12 extract alone, listed as SB)","level of MyoD RNA detection (agents for 48 hours before permeabilization, C2C12 extract incubated 293T cells, relative to C2C12 extract alone, listed as TSA)"
Nc1ncn([C@@H]2O[C@H](CO)[C@@H](O)[C@H]2O)c(=O)n1 [5-azacytidine],low level of expression of MyoD,did not appear to enhance the level of MyoD expression,low level of expression of MyoD,appeared to enhance the level detection of this RNA; also recorded: enhance the level detection of this RNA slightly,more abundant and more specific,,,
CCCC(=O)[O-].[Na+] [Sodium Butyrate],,small increase in expression,low level of expression of MyoD,,,did not appear to enhance the level of MyoD expression,appeared to enhance the level detection of this RNA; also recorded: enhance the level detection of this RNA slightly,
CC(/C=C/C(=O)NO)=C\[C@@H](C)C(=O)c1ccc(N(C)C)cc1 [Trichostatin A],,did not appear to enhance the level of MyoD expression,,,,,,appeared to enhance the level detection of this RNA; also recorded: enhance the level detection of this RNA slightly
